Patent publication US5705356A, “Reagent for invitro diagnostic determination of bicarbonate” (Trace Scientific Limited, priority 1993, dated 1998)

Experiments:
[1] = biological target: T1, Glycerol Dehydrogenase (GLY.DH) (Geobacillus stearothermophilus, UniProt P32816); assay: Relative activity of substrates with glycerol dehydrogenase (vs glycerol); assay type: biochemical; settings: relative to glycerol (100%)
T1 sequence (P32816 1-370): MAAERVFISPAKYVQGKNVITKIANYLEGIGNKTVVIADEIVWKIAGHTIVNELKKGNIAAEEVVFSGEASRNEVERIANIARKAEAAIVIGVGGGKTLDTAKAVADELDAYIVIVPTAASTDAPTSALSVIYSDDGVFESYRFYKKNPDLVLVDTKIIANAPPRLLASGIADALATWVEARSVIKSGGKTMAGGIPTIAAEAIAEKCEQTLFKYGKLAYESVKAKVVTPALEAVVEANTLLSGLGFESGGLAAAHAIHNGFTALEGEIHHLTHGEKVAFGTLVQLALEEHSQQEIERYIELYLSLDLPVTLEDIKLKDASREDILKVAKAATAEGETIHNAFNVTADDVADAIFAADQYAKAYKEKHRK
Description: Alternatively, using Glycerol Dehydrogenase (GLY.DH) as the enzyme, suitable substrates in the reaction [drawing 8] and their activity relative to glycerol (100%) are

G-6-P-DH = biological target: T2, G-6-P-DH (Saccharomyces cerevisiae, UniProt P11412); assay: Relative reactivity of substrates with G-6-P-DH, NADP as coenzyme (vs G-6-P); assay type: biochemical, Yeast; settings: relative to G-6-P-DH/G-6-P pair
T2 sequence (P11412 1-505): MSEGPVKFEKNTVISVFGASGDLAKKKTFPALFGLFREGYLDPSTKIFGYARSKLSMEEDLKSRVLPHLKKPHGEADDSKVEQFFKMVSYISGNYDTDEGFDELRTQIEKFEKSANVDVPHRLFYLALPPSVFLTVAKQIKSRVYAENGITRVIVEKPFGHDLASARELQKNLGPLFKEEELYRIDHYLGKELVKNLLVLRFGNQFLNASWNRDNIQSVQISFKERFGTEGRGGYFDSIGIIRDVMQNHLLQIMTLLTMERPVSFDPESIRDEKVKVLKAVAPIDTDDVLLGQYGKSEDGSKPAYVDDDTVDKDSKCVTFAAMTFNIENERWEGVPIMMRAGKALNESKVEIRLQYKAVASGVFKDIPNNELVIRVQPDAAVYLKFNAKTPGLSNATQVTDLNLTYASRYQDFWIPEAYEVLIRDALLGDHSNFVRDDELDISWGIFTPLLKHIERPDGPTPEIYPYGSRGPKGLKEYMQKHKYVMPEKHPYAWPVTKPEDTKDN

[2] = system: Glucose Dehydrogenase (GLD); assay: Relative activity of substrates with glucose dehydrogenase (vs D-glucose); assay type: biochemical; settings: rate of reaction relative to D-glucose (100%), NAD coenzyme
Description: If glucose dehydrogenase is used as the enzyme, preferred substrates for reduction of the NAD coenzyme and their relative degree of cross reactivity when compared to D-Glucose are:

[3] = biological target: T3, Leucine Dehydrogenase (L.D) (Bacillus cereus, UniProt P0A393); assay: Relative activity of substrates with leucine dehydrogenase (vs L-leucine); assay type: biochemical; settings: relative to L-leucine (100%)
T3 sequence (P0A393 1-366): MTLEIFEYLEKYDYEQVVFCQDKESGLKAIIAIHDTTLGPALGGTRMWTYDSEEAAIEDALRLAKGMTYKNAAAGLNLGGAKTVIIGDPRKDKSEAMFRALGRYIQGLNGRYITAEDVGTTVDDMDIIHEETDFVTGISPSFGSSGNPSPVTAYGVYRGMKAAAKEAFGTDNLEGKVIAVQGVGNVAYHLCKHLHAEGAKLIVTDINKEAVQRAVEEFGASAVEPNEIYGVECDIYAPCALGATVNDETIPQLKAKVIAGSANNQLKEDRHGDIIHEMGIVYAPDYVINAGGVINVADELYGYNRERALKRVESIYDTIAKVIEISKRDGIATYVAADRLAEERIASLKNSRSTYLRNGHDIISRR
Description: Wherein Leucine Dehydrogenase (L.D) is used as the enzyme according to the reaction [drawing 9] suitable substrates and their activity relative to L-leucine (100%) are

[4] = biological target: T4, L-Alanine Dehydrogenase (A.D) (Lysinibacillus sphaericus, UniProt P17556); assay: Relative activity of substrate with L-alanine dehydrogenase (vs L-alanine); assay type: biochemical; settings: relative to L-alanine (100%)
T4 sequence (P17556 1-372): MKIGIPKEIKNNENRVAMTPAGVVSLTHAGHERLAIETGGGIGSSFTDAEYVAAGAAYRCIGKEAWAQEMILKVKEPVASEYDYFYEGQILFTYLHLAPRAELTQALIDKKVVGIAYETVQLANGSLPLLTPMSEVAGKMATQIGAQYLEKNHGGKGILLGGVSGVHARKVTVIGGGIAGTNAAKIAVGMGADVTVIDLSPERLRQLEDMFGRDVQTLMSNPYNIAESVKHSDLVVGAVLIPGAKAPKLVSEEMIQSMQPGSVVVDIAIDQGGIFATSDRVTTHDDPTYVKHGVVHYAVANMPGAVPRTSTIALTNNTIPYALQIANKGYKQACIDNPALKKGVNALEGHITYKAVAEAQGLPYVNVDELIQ
Description: If L-Alanine Dehydrogenase (A.D) is used as the enzyme in a reaction system similar to that used for Leucine Dehydrogenase, a suitable substrate and its activity relative to L-alanine (100%) is […]

[5] = biological target: T5, 3α-Hydroxysteroid Dehydrogenase (H.DH) (Comamonas testosteroni, UniProt P80702); assay: Relative activity of substrates with 3α-hydroxysteroid dehydrogenase (vs cholic acid); assay type: biochemical; settings: relative to Cholic Acid
T5 sequence (P80702 1-257): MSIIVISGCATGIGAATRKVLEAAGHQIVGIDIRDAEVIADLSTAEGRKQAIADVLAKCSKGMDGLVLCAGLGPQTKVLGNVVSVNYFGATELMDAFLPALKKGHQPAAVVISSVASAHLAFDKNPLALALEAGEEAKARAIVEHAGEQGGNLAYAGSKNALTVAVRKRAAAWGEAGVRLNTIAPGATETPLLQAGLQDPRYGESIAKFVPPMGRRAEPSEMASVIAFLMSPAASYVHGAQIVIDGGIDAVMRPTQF
Description: Their activities relative to Cholic Acid are also listed.

[6] = system: L-Lactate Dehydrogenase (LDH); assay: Relative activity of substrates with L-lactate dehydrogenase (vs L-lactate); assay type: biochemical, Lactobacillus sp.; settings: relative to L-Lactate
Description: Wherein, L-Lactate Dehydrogenase (LDH) from Lactobacillus sp. is used as the enzyme in the following reaction, [drawing 10] suitable substrates and their activity relative to L-Lactate are:

For `CC(O)C(C)O` (centres unmarked) [2,3-Butanediol], the “Relative Activity” value [1] was 52.6%.
`O=P(O)(O)OC[C@H]1OC(O)C[C@@H](O)[C@@H]1O` (some centres unmarked) [2-deoxyglucose-6-P] was tested, and the relative reactivity (G-6-P-DH) was 18%.
With `OC[C@H]1O[C@@H](O)[C@H](O)[C@@H](O)[C@@H]1O` [D-Glucose] the “Relative Activity” value [2] was 100%.
`O=C(CO)[C@@H](O)[C@H](O)[C@H](O)CO` [D-fructose] was tested, and the “Relative Activity” value [2] was 0.8%.
`OC[C@H]1OC(O)[C@H](O)[C@@H](O)[C@H]1O` (stereo partly drawn) [D-galactose] was tested, and the “Relative Activity” value [2] was 0.1%.
With `OC[C@H]1O[C@@H](O[C@H]2[C@H](O)[C@@H](O)C(O)O[C@@H]2CO)[C@H](O)[C@@H](O)[C@H]1O` (stereo partly drawn) [D-lactose] the “Relative Activity” value [2] was 1.2%.
In the case of `OC[C@H]1OC(O)[C@@H](O)[C@@H](O)[C@@H]1O` (stereo partly drawn) [D-mannose], the “Relative Activity” value [2] was 2.4%.
With `OC[C@@H](O)[C@@H](O)[C@H](O)[C@@H](O)CO` [D-sorbitol] the “Relative Activity” value [2] was 0.1%.
In the case of `OCCO` [Ethylene glycol], the “Relative Activity” value [1] was 7.8%.
In the case of `OCC(O)CCl` (stereo not drawn) [Glycerol-α-monochlorohydrin], the “Relative Activity” value [1] was 48.5%.
`N[C@@H](CS)C(=O)O` [L-Cysteine] was tested, and the “Relative Activity” value [3] was 0.3%.
`CC[C@H](C)[C@H](N)C(=O)O` [L-Isoleucine] was tested, and the “Relative Activity” value [3] was 58%.
`CSCC[C@H](N)C(=O)O` [L-Methionine] was tested, and the “Relative Activity” value [3] was 0.6%.
`CCCC[C@H](N)C(=O)O` [L-Norleucine] was tested, and the “Relative Activity” value [3] was 10%.
For `CCC[C@H](N)C(=O)O` [L-Norvaline], the “Relative Activity” value [3] was 41%.
For `CC(C)[C@H](N)C(=O)O` [L-Valine], the “Relative Activity” value [3] was 74%.
In the case of `C[C@H](N)C(=O)O` [L-alanine], the “Relative Activity” value [4] was 100%.
For `CC(C)C[C@H](N)C(=O)O` [L-leucine], the “Relative Activity” value [3] was 100%.
`N[C@@H](CO)C(=O)O` [L-serine] was tested, and the “Relative Activity” value [4] was 5%.
With `O=C(CO)[C@@H](O)[C@H](O)[C@@H](O)CO` [L-sorbose] the “Relative Activity” value [2] was 0.3%.
With `C[C@H](CCC(=O)O)[C@H]1CC[C@H]2[C@@H]3CC[C@@H]4C[C@H](O)CC[C@]4(C)[C@H]3CC[C@]12C` [Lithocholic Acid] the “Relative Activity” value [5] was 96%.
With `O=C(O)CC(=O)C(=O)O` [Oxoloacetate] the “Relative Activity” value [6] was 36%.
Work on `O=P(O)(O)OC[C@H]1OC(O)[C@H](O)[C@@H](O)[C@H]1O` (some centres unmarked) [galactose-6-P] yielded a relative reactivity (G-6-P-DH) of 25%.
With `N[C@H]1C(O)O[C@H](COP(=O)(O)O)[C@@H](O)[C@@H]1O` (some centres unmarked) [glucosamine-6-P] the relative reactivity (G-6-P-DH) was 2%.
In the case of `OCC(O)CO` [glycerol], the “Relative Activity” value [1] was 100%.
In the case of `O[C@H]1[C@H](O)[C@@H](O)[C@H](O)[C@@H](O)[C@H]1O` [inositol], the “Relative Activity” value [2] was 0.2%.
With `OC[C@H]1O[C@H](O[C@H]2[C@H](O)[C@@H](O)[C@H](O)O[C@@H]2CO)[C@H](O)[C@@H](O)[C@@H]1O` [maltose] the “Relative Activity” value [2] was 3.9%.
Etiocholic Acid was tested, and the “Relative Activity” value [5] was 60%.
In the case of xylose, the “Relative Activity” value [2] was 8.9%.
